Data as given in patent US20060160775A1, “Combination therapy” (priority 2003, published 2006).

How the values were obtained:
tumour models = experiment: Anti-tumour activity in a range of models; type: in vivo; conditions: once-daily oral administration
[1] = tested on: Human LoVo colorectal carcinoma tumour xenografts; experiment: Human LoVo colorectal carcinoma tumour xenografts in nude mice; type: in vivo, athymic (nu/nu genotype) mouse; conditions: for Number of tumour regressions evident at day 14: groups of nine; for Mean % Inhibition of tumour growth at day 14: vs vehicle control
Description: Human LoVo Colorectal Carcinoma Tumour Xenografts in Nude Mice
1×10^7 LoVo tumour cells in 0.1 ml of serum free Dulbecco's Modified Eagle's Medium (DMEM) were injected subcutaneously (s.c.) into the flank of each athymic (nu/nu genotype) mouse. Tumour volumes were assessed by bilateral Vernier caliper measurement and, taking length to be the longest diameter across the tumour and width the corresponding perpendicular, calculated using the formula (length×width)×the square root of (length×width)×(π/6). […] ZD6126 was dissolved in a solution of 0.05% sodium carbonate in physiological saline and administered by intraperitoneal injection at 0.1 ml/10 g body weight. […] Inhibition of tumour growth from the start of treatment was assessed on day 14 by comparison of the differences in tumor volume between control and treated groups. In addition, the number of tumour regressions following 14 days of treatment was ascertained (tumour regression being evident if the tumour volume at day 14 was smaller than the pre-treatment value on day 0).

tumour vasculature = conditions: in vivo; cited from earlier work
[2] = AZD2171 alone, 3 mg/kg/day, days 0-14, p.o.
[3] = ZD6126 alone, 100 mg/kg/day, days 0-2, i.p.

Row | SMILES | Anti-tumour activity (tumour models) | Number of tumour regressions evident at day 14 [1, 2] | Mean % Inhibition of tumour growth at day 14 [1, 2] | Effect on tumour vasculature (tumour vasculature) | Number of tumour regressions evident at day 14 [1, 3] | Mean % Inhibition of tumour growth at day 14 [1, 3]
1 | COc1cc2c(Oc3ccc4[nH]c(C)cc4c3F)ncnc2cc1OCCCN1CCCC1 [AZD2171, 4-(4-fluoro-2-methylindol-5-yloxy)-6-methoxy-7-(3-(pyrrolidin-1-yl)propoxy)quinazoline] | broad-spectrum anti-tumour activity | 0/9 | 62% (P < 0.001) |  |  | 
2 | COc1cc2c(c(OC)c1OC)-c1ccc(OP(=O)(O)O)cc1[C@@H](NC(C)=O)CC2 [ZD6126, (5S)-5-(acetylamino)-9,10,11-trimethoxy-6,7-dihydro-5H-dibenzo[a,c]cyclohepten-3-yl dihydrogen phosphate] |  |  |  | selectively disrupts tumour vasculature leading to vessel occlusion and extensive tumour necrosis | 1/9 | 65% (P < 0.001)
